Measured values reported in US4629683A, “Processing silver halide photographic material with blocked agent and hydroxylamine” (Fuji Photo Film Co., Ltd., priority 1983, dated 1986).

How the values were obtained:
[1] = Acceleration effect of hydroxylamine upon release of antifoggant from precursor (HPLC, half-life); format: physicochemical; design: key to Acceleration Effect: ratio of half-life without hydroxylamine to half-life with it; details: for t1/2 Hydroxylamine Absent / t1/2 Hydroxylamine Present: release of antifoggant; for change in releasing speed due to addition of hydroxylamine: in words, pH 10.0 and 11.0
Method: Measurement of Acceleration Effect of Hydroxylamine upon Release of Antifoggant from Precursor Thereof
(§1) The resulting solution was added to a mixture of 16 ml of acetonitrile and 20 ml of Britton-Robinson buffer solution (Britton-Robinson buffer solution can be prepared by mixing phosphoric acid, boric acid, acetic acid and sodium hydroxide, and of which pH can be adjusted within a pH range of 1.81 to 11.98), and allowed to react (wherein the pH of the solution was controlled by the buffer solution). After a definite time, acetic acid was added to lower the pH of the reaction mixture to 6.25 and thereby the reaction stopped. The antifoggant released was determined using high-speed liquid chromatography and therefrom the rate constant of the pseudo first-order reaction and, further, the half-life t1/2 were evaluated.
(§2) The acceleration effect of hydroxylamine was determined by comparison of the half-life value in the hydroxylamine present present case and that in the hydroxylamine-absent case and, further, compared with effects of known precursors of the kind which release antifoggants without ring-cleavage (Comparison Precursor (A-1) and Comparison Precursor (A-2)).

[2] = Acceleration effect of hydroxylamine upon release of pyrazolidones from precursors (half-life); format: physicochemical; details: for Acceleration Effect: pH 10.0, half-life hydroxylamine absent vs present; for t1/2 Hydroxylamine Absent / t1/2 Hydroxylamine Present: release of pyrazolidones; for t1/2 Hydroxylamine Absent: pH 10.0, hydroxylamine absent; for t1/2 Hydroxylamine Present: pH 10.0, hydroxylamine present
Method: as §1, §2
Measurement of Acceleration Effect on Hydroxylamine upon Release of Pyrazolidones from Precursors Thereof
The acceleration effects of hydroxylamine upon release of pyrazolidones were determined in the same way as in Example 1, and the results obtained are shown in Table 2 below.

[3] = pH 10.0, half-life hydroxylamine absent vs present
[4] = pH 11.0, half-life hydroxylamine absent vs present
[5] = pH 10.0, hydroxylamine present (3.8×10^-4 mole)
[6] = pH 11.0, hydroxylamine present (3.8×10^-4 mole)

Row | SMILES | Acceleration Effect [1, 3] | Acceleration Effect [1, 4] | t1/2 Hydroxylamine Absent ([1]; pH 10.0, hydroxylamine absent) | t1/2 Hydroxylamine Present [1, 5] | t1/2 Hydroxylamine Absent ([1]; pH 11.0, hydroxylamine absent) | t1/2 Hydroxylamine Present [1, 6] | change in releasing speed due to addition of hydroxylamine [1] | Acceleration Effect [2] | t1/2 Hydroxylamine Absent [2] | t1/2 Hydroxylamine Present [2]
1 | O=C1OC(Sc2nnnn2-c2ccccc2)(c2ccccc2)c2ccc([N+](=O)[O-])cc21 (centres unmarked) [(III)-(14)] | 27 | 25 | 9,000 sec | 340 s | 980 s | 39 s |  |  |  | 
2 | O=C1CC(Sc2nnnn2-c2ccccc2)C(=O)N1c1ccccc1 (centres unmarked) [Comparison Precursor (A-1), reference compound] | 0.61 | 0.82 | 2,600 sec | 4,200 sec | 310 s | 380 s | reduced the releasing speed rather than accelering it, or hardly showed any appreciable change in the releasing speed |  |  | 
3 | O=C1c2ccc([N+](=O)[O-])cc2C(=O)N1CSc1nnnn1-c1ccccc1 [(I)-(10)] | 8.1 | 3.0 | 320 s | 38 s | 37 s | 12 s |  |  |  | 
4 | CN(C(=O)Sc1nnnn1-c1ccccc1)c1cccc2c1COC2=O [(V)-(1)] | 25 | 27 | 53,000 sec | 2,100 sec | 6,200 sec | 230 s |  |  |  | 
5 | O=C1CCC(=O)N1CSc1nnnn1-c1ccccc1 [(II)-(1)] | 5.2 | 2.5 | 5,700 sec | 1,200 sec | 650 s | 260 s |  |  |  | 
6 | CNC(=O)Nc1cccc(-n2nnnc2SCN2C(=O)c3ccccc3S2(=O)=O)c1 [(I)-(16)] | 35 | 18 | 4,100 sec | 120 s | 490 s | 27 s |  |  |  | 
7 | O=C1c2ccccc2S(=O)(=O)N1CSc1nnnn1-c1ccccc1 [(I)-(15)] | 37 | 16 | 3,700 sec | 100 s | 470 s | 29 s |  |  |  | 
8 | O=C1c2ccccc2C(=O)N1CN1C(=O)CCN1c1ccccc1 [Compound (I)-(13), 1-phenyl-2-(N-phthalimidomethyl)-3-pyrazolidinone] |  |  |  |  |  |  |  | 3.6 | 9,400 sec | 2,600 sec
9 | CC1(C)CN(c2ccccc2)N(CN2C(=O)c3ccccc3S2(=O)=O)C1=O [(I)-(19)] |  |  |  |  |  |  |  | 19 | 7,200 sec | 370 s
10 | CN1C(=O)c2cccc(N(C)C(=O)Sc3nnnn3-c3ccccc3)c2C1=O [(IV)-(2)] | 5.0 | 4.1 | 3,500 sec | 700 s | 420 s | 100 s |  |  |  | 
11 | O=C1OC(N2C(=O)CCN2c2ccccc2)c2ccc([N+](=O)[O-])cc21 (centres unmarked) [(III)-(7)] |  |  |  |  |  |  |  | 29 | 13,000 sec | 450 s
12 | O=C1CCN(c2ccccc2)N1CN1C(=O)c2ccccc2S1(=O)=O [Compound (I)-(18), N-(1-phenyl-3-pyrazolidinone-2-ylmethyl)saccharin] |  |  |  |  |  |  |  | 21 | 9,300 sec | 440 s
13 | CC(CC#N)Sc1nnnn1-c1ccccc1 (centres unmarked) [Comparison Precursor (A-2), reference compound] | 1.1 | 1.1 | 25,000 sec | 23,000 sec | 2,900 sec | 2,700 sec | reduced the releasing speed rather than accelering it, or hardly showed any appreciable change in the releasing speed |  |  | 
14 | CN1C(=O)c2cccc(N(C)C(=O)OC3=NN(c4ccccc4)CC3(C)CO)c2C1=O (centres unmarked) [(IV)-(5)] |  |  |  |  |  |  |  | 6.3 | 5,600 sec | 880 s
15 | O=C1OC(Sc2nnnn2-c2ccccc2)c2ccccc21 (centres unmarked) [(III)-(1)] | 29 | 30 | 27,000 sec | 960 s | 3,300 sec | 110 s |  |  |  | 
16 | O=C1c2ccccc2C(=O)N1COC1=NN(c2ccccc2)CC1 [Compound (I)-(14), 1-phenyl-3-(N-phthalimidomethyloxy)-2-pyrazoline] |  |  |  |  |  |  |  | 8.2 | 3,200 sec | 390 s
